For orientation: IC50 means the point on the concentration scale where inhibition reaches its midpoint.

Like-named read-outs stand apart in the source and are kept apart here.

The record followed here is patent US20230131899A1, “INHIBITORS OF MICROBIALLY INDUCED AMYLOID” (Axial Therapeutics, Inc., priority 2020, published 2023).

Assay [1] has as its target T1, E. coli CsgA (Escherichia coli, UniProt P28307).
T1 construct: made in house; host or cells: E. coli NEB 3016 slyD::kan, pET11d
Nature of the assay: In vitro ThioflavinT assay of CsgA aggregation (CsgA ThT Assay). It is filed as biochemical. The procedure, abridged: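 Purified C-terminal His-tagged CsgA, monomerised by desalting and 30-kDa filtration, at 2-20 μM with 20-40 μM ThT in 50 mM potassium phosphate pH 7.3, 1% DMSO, compounds 3.125-200 uM; room temperature, fluorescence (ex 438/em 495 nm) read every 15 min. Background-subtracted signal expressed as percent inhibition versus vehicle at 6-6.5 or 8-9 h, or as percent control AUC.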

The test system of assay [2] is CsgA gene expression (csgBAC promoter-GFP reporter) in E. coli UTI89. Nature of the assay: In vitro live cell fluorescent reporter assay of CsgA transcription (Reporter Assay). It is filed as cell-based. The procedure, abridged:
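Compounds at 0.14–100 μM (1% DMSO final) incubated 20 h at 27 °C in YESCA broth with UTI89 carrying a single-copy GFP reporter under the csgBAC intergenic promoter region, inoculum OD600 0.003. Fluorescence normalized to vehicle wells gave IC50 and 50%-of-vehicle concentration; OD600 reduction >10% flagged growth impact.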
A general note: A reporter such as luciferase makes a cellular process visible.

Where [3] appears, read: read-out: Reporter Assay Abs IC50 (activity range), median Abs IC50 in the CsgA reporter assay, class symbol.
[4] abbreviates: read-out: CsgA ThT Assay (10 μM CsgA) % Control AUC at 1005 minutes, 25 μM (activity range), CsgA 10 μM, black plates, compound 25 μM, 1005 minutes, class symbol.
Setting [5] is: read-out: CsgA ThT Assay (10 μM CsgA) % Control AUC at 1005 minutes, 25 μM, mean AUC as % of DMSO control, CsgA 10 μM, black plates, compound 25 μM, 1005 minutes.
The mark [6] stands for this setting: read-out: CsgA ThT Assay (10 μM CsgA) % Control AUC at 1005 minutes, 100 μM (activity range), CsgA 10 μM, black plates, compound 100 μM, 1005 minutes, class symbol.
Setting [7] is: read-out: CsgA ThT Assay (10 μM CsgA) % Control AUC at 1005 minutes, 100 μM, mean AUC as % of DMSO control, CsgA 10 μM, black plates, compound 100 μM, 1005 minutes.
Where [8] appears, read: Escherichia coli, read-out: Reporter Assay Abs IC50 (μM), median Abs IC50 in the CsgA reporter assay, N/A = maximum expression reduction is <50% of control.
[9] abbreviates: read-out: CsgA ThT Assay (2 μM CsgA) % Control Bmax 25 μM, activity range, class symbol, CsgA 2 μM, white plates, compound 25 μM.
Where [10] appears, read: read-out: CsgA ThT Assay (2 μM CsgA) % Control Bmax 25 μM, mean Bmax as percentage of DMSO control, CsgA 2 μM, white plates, compound 25 μM.
[11] abbreviates: read-out: CsgA ThT Assay (2 μM CsgA) % Control Bmax 100 μM, activity range, class symbol, CsgA 2 μM, white plates, compound 100 μM.
Setting [12] is: read-out: CsgA ThT Assay (2 μM CsgA) % Control Bmax 100 μM, mean Bmax as percentage of DMSO control, CsgA 2 μM, white plates, compound 100 μM.
The mark [13] stands for this setting: Escherichia coli, read-out: Reporter Assay Abs IC50, activity range, class symbol.
The mark [14] stands for this setting: Escherichia coli, read-out: Reporter Assay Abs IC50 (activity range), median Abs IC50 in the CsgA reporter assay, class symbol.

T1 sequence (P28307 23-151): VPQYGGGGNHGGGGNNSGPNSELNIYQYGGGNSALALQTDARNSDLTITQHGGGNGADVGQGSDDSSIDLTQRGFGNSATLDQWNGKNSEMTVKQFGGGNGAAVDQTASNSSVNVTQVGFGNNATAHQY

As to `CCCCN1CC(C(=O)O)n2c(c(-c3cccc(C(F)(F)F)c3)c(Cc3cccc4ccccc34)cc2=O)S1(=O)=O` (single isomer, unassigned) [Compound 021b, 2-butyl-8-(naphthalen-1-ylmethyl)-6-oxo-9-(3-(trifluoromethyl)phenyl)-3,4-dihydro-2H,6H-pyrido[1,2-e][1,2,5]thiadiazine-4-carboxylic acid 1,1-dioxide], the “CsgA ThT Assay (10 μM CsgA) % Control AUC at 1005 minutes, 25 μM (activity range)” value in assay [1] (CsgA 10 μM, black plates, compound 25 μM, 1005 minutes, class symbol) is given as “(++) (% control AUC of 31 to 60%)”. The “CsgA ThT Assay (10 μM CsgA) % Control AUC at 1005 minutes, 100 μM (activity range)” value in assay [1] (CsgA 10 μM, black plates, compound 100 μM, 1005 minutes, class symbol) is listed as “(+) (% control AUC of greater than 60%)”. Moreover, the “CsgA ThT Assay (10 μM CsgA) % Control AUC at 1005 minutes, 25 μM” value in assay [1] (mean AUC as % of DMSO control, CsgA 10 μM, black plates, compound 25 μM, 1005 minutes) was 36%. Moreover, the “CsgA ThT Assay (10 μM CsgA) % Control AUC at 1005 minutes, 100 μM” value in assay [1] (mean AUC as % of DMSO control, CsgA 10 μM, black plates, compound 100 μM, 1005 minutes) is recorded as 99%. Further, the IC50 is 1.3 to 4.5 µM in assay [2] (setting [3]) and 2.1 µM in assay [2] (read-out: Reporter Assay Abs IC50, median Abs IC50 in the CsgA reporter assay, N/A = maximum expression reduction is <50% of control).
`Nc1c(Cc2cccc3ccccc23)c(-c2cccc(C(F)(F)F)c2)c2n(c1=O)C(C(=O)O)CS2` (single isomer, unassigned) [Compound 020a, 6-amino-7-(naphthalen-1-ylmethyl)-5-oxo-8-(3-(trifluoromethyl)phenyl)-2,3-dihydro-5H-thiazolo[3,2-a]pyridine-3-carboxylic acid]: the remaining activity at 25 µM was 11 to 31% in assay [1] (setting [4]) and 27% in assay [1] (setting [5]). Further, the remaining activity at 100 µM in assay [1] (setting [6]) was 11 to 31%; in assay [1] (setting [7]), 20%. Moreover, the figures for the concentration for half-maximal inhibition (IC50) in assay [2] (setting [8]) and in assay [2] (setting [3]) were 4.4 µM and 1.3 to 4.5 µM, respectively.
With `O=C(O)c1c(Cc2cccc3ccccc23)c(-c2cccc(C(F)(F)F)c2)c2n(c1=O)C(C(=O)O)CN2Cc1ccccc1` (stereo not drawn) [Compound 209, 1-benzyl-7-(naphthalen-1-ylmethyl)-5-oxo-8-(3-(trifluoromethyl)phenyl)-1,2,3,5-tetrahydroimidazo[1,2-a]pyridine-3,6-dicarboxylic acid], the figures for the remaining activity at 25 µM in assay [1] (setting [9]) and in assay [1] (setting [10]) were above 60% and 81%, respectively. Also, the remaining activity at 100 µM was above 60% in assay [1] (setting [11]) and 64% in assay [1] (setting [12]). Besides, the 50% inhibitory concentration (IC50) in assay [2] (setting [8]) was 6.6 µM; in assay [2] (setting [13]) it was 4.6 to 10 µM.
Take `CCCN1CC(C(=O)O)n2c(c(-c3cccc(C(F)(F)F)c3)c(Cc3cccc4ccccc34)c(OCCc3ccccc3)c2=O)S1(=O)=O` (stereo not drawn) [Compound 001, 8-(naphthalen-1-ylmethyl)-6-oxo-7-phenethoxy-2-propyl-9-(3-(trifluoromethyl)phenyl)-3,4-dihydro-2H,6H-pyrido[1,2-e][1,2,5]thiadiazine-4-carboxylic acid 1,1-dioxide]: the figures for the remaining activity at 25 µM in assay [1] (setting [4]) and in assay [1] (setting [5]) were 31 to 60% and 36%, respectively. Also, the remaining activity at 100 µM in assay [1] (setting [6]) was 31 to 60%; in assay [1] (setting [7]), 35%. In addition, the IC50 in assay [2] (setting [14]) was 1.3 to 4.5 µM; in assay [2] (setting [8]) it was 1.5 µM.
For the compound `O=C(O)[C@@H]1CN(Cc2ccccc2)c2c(-c3cccc(C(F)(F)F)c3)c(Cc3cccc4ccccc34)c(Br)c(=O)n21` (single isomer, unassigned) [Compound 189], the remaining activity at 25 µM is 31 to 60% in assay [1] (setting [9]) and 58% in assay [1] (setting [10]). Besides, the remaining activity at 100 µM in assay [1] (setting [11]) was 31 to 60%; in assay [1] (setting [12]), 49%. The concentration for half-maximal inhibition (IC50) was 1.4 µM in assay [2] (setting [8]) and 1.3 to 4.5 µM in assay [2] (setting [13]).
For `O=C(O)C1CN(C2CCCC2)S(=O)(=O)c2c(-c3cccc(C(F)(F)F)c3)c(Cc3cccc4ccccc34)c(NC3CCCC3)c(=O)n21` (stereo not drawn) [Compound 150, 2-cyclopentyl-7-(cyclopentylamino)-8-(naphthalen-1-ylmethyl)-6-oxo-9-(3-(trifluoromethyl)phenyl)-3,4-dihydro-2H,6H-pyrido[1,2-e][1,2,5]thiadiazine-4-carboxylic acid 1,1-dioxide], the remaining activity at 25 µM is above 60% in assay [1] (setting [9]) and 78% in assay [1] (setting [10]). For the same compound, the remaining activity at 100 µM in assay [1] (setting [11]) was above 60%; in assay [1] (setting [12]), 199%. The IC50 was 4.2 µM in assay [2] (setting [8]) and 1.3 to 4.5 µM in assay [2] (setting [13]).
For `O=C(O)C1CN(Cc2ccccc2)c2c(-c3cccc(C(F)(F)F)c3)c(Cc3cccc4cccnc34)c(Cl)c(=O)n21` (stereo not drawn) [Compound 213, 1-benzyl-6-chloro-5-oxo-7-(quinolin-8-ylmethyl)-8-(3-(trifluoromethyl)phenyl)-1,2,3,5-tetrahydroimidazo[1,2-a]pyridine-3-carboxylic acid], the remaining activity at 25 µM was above 60% in assay [1] (setting [9]) and 72% in assay [1] (setting [10]). In addition, the remaining activity at 100 µM in assay [1] (setting [11]) was 31 to 60%; in assay [1] (setting [12]) it was 44%. Moreover, the IC50 is 9.1 µM in assay [2] (setting [8]) and 4.6 to 10 µM in assay [2] (setting [13]).
Consider `Nc1c(Cc2cccc3ccccc23)c(-c2cccc(C(F)(F)F)c2)c2n(c1=O)C(C(=O)O)CNS2(=O)=O` (stereo not drawn) [Compound 082, 7-amino-8-(naphthalen-1-ylmethyl)-6-oxo-9-(3-(trifluoromethyl)phenyl)-3,4-dihydro-2H,6H-pyrido[1,2-e][1,2,5]thiadiazine-4-carboxylic acid 1,1-dioxide], for which the remaining activity at 25 µM is 31 to 60% in assay [1] (setting [4]) and 51% in assay [1] (setting [5]). For the same compound, the remaining activity at 100 µM in assay [1] (setting [6]) was 11 to 31%; in assay [1] (setting [7]), 12%. Besides, the IC50 in assay [2] (setting [14]) was above 10 µM; in assay [2] (setting [8]) it was 17.5 µM.
For the compound `O=C(O)C1CN(Cc2ccccn2)c2c(-c3cccc(C(F)(F)F)c3)c(Cc3cccc4ccccc34)c(Cl)c(=O)n21` (stereo not drawn) [Compound 166, 6-chloro-7-(naphthalen-1-ylmethyl)-5-oxo-1-(pyridin-2-ylmethyl)-8-(3-(trifluoromethyl)phenyl)-1,2,3,5-tetrahydroimidazo[1,2-a]pyridine-3-carboxylic acid], the remaining activity at 25 µM in assay [1] (setting [9]) was above 60%; in assay [1] (setting [10]) it was 72%. Also, the results for the remaining activity at 100 µM in assay [1] (setting [11]) and in assay [1] (setting [12]) were 31 to 60% and 40%, respectively. The results for the half-maximal inhibitory concentration (IC50) in assay [2] (setting [8]) and in assay [2] (setting [13]) were 2.5 µM and 1.3 to 4.5 µM, respectively.
`CCCCCN1CC(C(=O)O)n2c(c(-c3cccc(C(F)(F)F)c3)c(Cc3ccc(N)c4ccccc34)cc2=O)S1(=O)=O` (stereo not drawn) [Compound 052]: the remaining activity at 25 µM in assay [1] (setting [4]) was 31 to 60%; in assay [1] (setting [5]), 42%. For the same compound, the values for the remaining activity at 100 µM in assay [1] (setting [6]) and in assay [1] (setting [7]) were 11 to 31% and 20%, respectively. The 50% inhibitory concentration (IC50) in assay [2] (setting [14]) is below 1.3 µM; in assay [2] (setting [8]), 1.1 µM.
As to `CCCN1CC(C(=O)O)n2c(c(-c3cccc(C(F)(F)F)c3)c(Cc3cccc4ccccc34)c(C(C)C)c2=O)S1(=O)=O` (stereo not drawn) [Compound 125, 7-isopropyl-8-(naphthalen-1-ylmethyl)-6-oxo-2-propyl-9-(3-(trifluoromethyl)phenyl)-3,4-dihydro-2H,6H-pyrido[1,2-e][1,2,5]thiadiazine-4-carboxylic acid 1,1-dioxide], the remaining activity at 25 µM in assay [1] (setting [4]) is 11 to 31%; in assay [1] (setting [5]), 25%. Also, the values for the remaining activity at 100 µM in assay [1] (setting [6]) and in assay [1] (setting [7]) were 31 to 60% and 44%, respectively. For the same compound, the 50% inhibitory concentration (IC50) was 1.3 to 4.5 µM in assay [2] (setting [14]) and 2.7 µM in assay [2] (setting [8]).
In the case of `CN1CC(C(=O)O)n2c(c(-c3cccc(C(F)(F)F)c3)c(Cc3cccc4ccccc34)c(NC3CCNCC3)c2=O)S1(=O)=O` (stereo not drawn) [Compound 091, 2-methyl-8-(naphthalen-1-ylmethyl)-6-oxo-7-(piperidin-4-ylamino)-9-(3-(trifluoromethyl)phenyl)-3,4-dihydro-2H,6H-pyrido[1,2-e][1,2,5]thiadiazine-4-carboxylic acid 1,1-dioxide], the remaining activity at 25 µM is above 60% in assay [1] (setting [4]) and 90% in assay [1] (setting [5]). Besides, the remaining activity at 100 µM in assay [1] (setting [6]) is above 60%; in assay [1] (setting [7]), 65%. Besides, the IC50 is 4.6 to 10 µM in assay [2] (setting [14]) and 5.6 µM in assay [2] (setting [8]).
